Data taken from patent US20250339409A1, “USES OF PAN BET INHIBITORS” (VYNE THERAPEUTICS INC., priority 2021, published 2025).
≈ marks a conversion by molar mass, not a printed value. Like-named read-outs stand apart in the source and are kept apart here.

Key:
[1] = tested on: IL4, IL13, IL31, CCL17, CCL26, CCL2 gene expression in Th2 stimulated human skin; assay: Th2 stimulated human skin explants, RT-qPCR of biomarkers; format: cell-based; conditions: for inhibition at 0.01 µM / inhibition at 0.04 µM / inhibition at 0.16 µM / inhibition at 0.63 µM / inhibition at 2.5 µM / inhibition at 10 µM: Homo sapiens, calculated to Th2 stimulated control; for inhibition at 2.5 µM: 2.50 μM
From the text: Human skin biopsy tissue was stimulated to induce a Th17 immuno-phenotype using a method derived from Feghali-Bostwick et al. Induction of a Th17 phenotype in human skin—a mimic of dermal inflammatory diseases, Methods and Protocols, 2, 45 (2019). The pharmacodynamic assay described therein involves a similar paradigm to elicit a Th2 response and is used to evaluate the therapeutic potential of the active compounds (e.g., BETi1; and
Freshly excised healthy human skin tissue from abdominoplasties is defatted, cleaned and sectioned into 7 mm biopsies. The biopsies are placed in Transwell® inserts with the epidermis apical and exposed to air and the dermis submerged in media in the basal chamber. The biopsies are pre-treated overnight at 37° C., 5% CO2 with different compounds and controls added to the media in the basal chamber.
The next day, contents of the basal chamber is replaced with fresh media containing the test compound (listed below) and a stimulation cocktail for either Th2 inflammation (proprietary of service provider cocktail) or Th17 inflammation (mix of antibodies against CD3, CD28, IL-4, IFNγ and recombinant IL-1β, IL-6, IL-21, TGF-β). The biopsies are incubated at 37° C., 5% CO2 for a further 24 hrs.
A list of all the treatments is provided below: • 1. Untreated control (for both stimulations) • 2. Th2 stimulated control • 3. Th17 stimulated control • 4. Th2+BETia at 0.01, 0.04, 0.16, 0.63, 2.50, and 10 μM • 5. Th2+BETi1 at 0.01, 0.04, 0.16, 0.63, 2.50, and 10 μM • 6. Th2+Ruxolitinib at 0.01, 0.04, 0.16, 0.63, 2.50, and 10 μM • 7. Th2+betamethasone valerate 210 μM (equivalent to 0.01%) • 8. Th17+BETia at 10 μM • 9. Th17+BETi1 at 10 μM • 10. Th17+Ruxolitinib at 10 μM • 11. Th17+betamethasone valerate 210 μM (equivalent to 0.01%)
After harvesting, the biopsies are cut in half, and one half is homogenized and used for RNA extraction by standard methods and inflammatory pathways is assessed by RT-qPCR. The ability of BETi1 or BETia to inhibit the activity of up to six biomarkers per stimulation is reported as percent activity calculated to stimulated control and fold change in gene expression calculated to untreated control with respect to Th2 (IL4, IL13, IL31, CCL17, CCL26, CCL2) and Th17 (CXCL10, IL17α, IL22, IL36γ, CCL20, SerpinB4). Statistical analysis is performed on data sets from all 3 donors combined and compares the percent inhibition of each biomarker by each treatment calculated to its respective vehicle.
qPCR values were calculated using the relative quantification approach outlined by Livak, et al (2001) (Section 9, Reference 2). The Ct values (threshold cycle) defined as the fractional cycle number at which the amount of amplified target reaches a fixed threshold, were normalised to the Ct value of an internal biomarker or ‘housekeeping gene’ (GAPDH). The higher limit of detection was set at a Ct value of 40, and any target having not reached Ct by 40 cycles was set to this value. The delta Ct values (dt(Ct)) refers to the Ct of the gene of interest minus the Ct of the internal biomarker. The ddt(Ct) is the dt(Ct) value of the gene minus the average dt(Ct) value of the untreated samples. The ddt(Ct) is converted to power by the equation; =power(2,dt(Ct)). Fold change was calculated as ratio of the power of the gene of interest divided by the average power of the untreated samples. This normalizes the untreated samplers to a value of 1. For the comparison of multiple skin donors, the stimulated samples were normalized to 100% maximum activity (such to normalize variability between different skin donors). Percent activity was calculated as the percent increase or decrease in stimulation compared to the stimulated samples set at 100% maximum activity. Percent change was calculated as: Inhibition=(100−(avg % activity/stimulated)*100). Statistical analysis was performed using One-way ANOVA with Dunnett's Multiple Comparisons (non parametric). […]

[2] = Solubility of BETi1 in water (HPLC) and in solvents (visual observation); format: physicochemical
Protocol: The resulting sample, still containing solid BETi1, was filtered and analyzed by HPLC for assay of BETi1 in solution. Solubility of BETi in water was determined to be about 0.005 mg/gram or 0.5 mg/100 mL water (1 ml=1 g) using HPLC (Table 41A).
To characterize the solubility of BETi in other solvents, about 5 mg of BETi1 was weighed into a 2 ml glass vial. 20 μL aliquots of each of the solvent listed in Table 41B was added to dissolve the drug substance at 25° C. Vortex and sonication were applied to assist dissolution. Approximate solubility was determined by visual observation and reported in […]

[3] = Th2 stimulated human skin explants, 10 μM, compared to untreated skin

Cn1cc(-c2cccc(O)c2Oc2ccccc2)c2cc[nH]c2c1=O [BETi1]
inhibition at 0.01 µM ([1]; read-out: % Inhibition CCL17): 22.4%
inhibition at 0.01 µM ([1]; read-out: % Inhibition CCL26): 31.3%
inhibition at 0.01 µM ([1]; read-out: % Inhibition IL31): < 0%
inhibition at 0.01 µM ([1]; read-out: % inhibition CCL2): < 0%
inhibition at 0.01 µM ([1]; read-out: % inhibition IL4): 20.4%
inhibition at 0.01 µM ([1]; read-out: % inhibition IL13): 22.4%
inhibition at 0.04 µM ([1]; read-out: % Inhibition CCL17): < 0%
inhibition at 0.04 µM ([1]; read-out: % Inhibition CCL26): 10.9%
inhibition at 0.04 µM ([1]; read-out: % Inhibition IL31): < 0%
inhibition at 0.04 µM ([1]; read-out: % inhibition CCL2): < 0%
inhibition at 0.04 µM ([1]; read-out: % inhibition IL4): 51.8%
inhibition at 0.04 µM ([1]; read-out: % inhibition IL13): 3%
inhibition at 0.16 µM ([1]; read-out: % Inhibition CCL26): 15.2%
inhibition at 0.16 µM ([1]; read-out: % Inhibition IL31): ~74%
inhibition at 0.16 µM ([1]; read-out: % inhibition CCL2): 40%
inhibition at 0.16 µM ([1]; read-out: % inhibition IL4): 83.4%
inhibition at 0.16 µM ([1]; read-out: % inhibition IL13): 76.3%
inhibition at 0.63 µM ([1]; read-out: % Inhibition CCL17): 48%
inhibition at 0.63 µM ([1]; read-out: % Inhibition CCL26): < 0%
inhibition at 0.63 µM ([1]; read-out: % inhibition CCL2): 34.9%
inhibition at 0.63 µM ([1]; read-out: % inhibition IL4): ~80%
inhibition at 0.63 µM ([1]; read-out: % inhibition IL13): ~84%
inhibition at 2.5 µM ([1]; read-out: % Inhibition CCL17): 62.3%
inhibition at 2.5 µM ([1]; read-out: % Inhibition CCL26): < 0%
inhibition at 2.5 µM ([1]; read-out: % inhibition CCL2): 76.5%
inhibition at 2.5 µM ([1]; read-out: % inhibition IL4): 82%
inhibition at 2.5 µM ([1]; read-out: % inhibition IL13): 90.2%
inhibition at 10 µM ([1]; 10 μM, read-out: % Inhibition CCL17): ~62%
inhibition at 10 µM ([1]; 10 μM, read-out: % Inhibition CCL26): < 0%
inhibition at 10 µM ([1]; 10 μM, read-out: % Inhibition IL31): 95.4%
inhibition at 10 µM ([1]; 10 μM, read-out: % inhibition IL4): 74.9%
inhibition at 10 µM ([1]; 10 μM, read-out: % inhibition IL13): 93.3%
highest percent inhibition of IL4, IL13, IL31, and CCL2 gene expression ([1]; Th2-mediated stimulation, compared to stimulated and untreated): 76-85%
inhibition of interleukin IL-4 expression [1, 3]: 75%
inhibition of interleukin IL-13 expression [1, 3]: 93%
inhibition of interleukin IL-31 expression [1, 3]: 95%
reduction in CXCL10, IL-17a, IL-36γ, IL-4, IL-13 or IL-31 levels ([1]; human skin induced to exhibit Th2 or Th17 phenotype): > 75%
solubility ([2]; isopropanol): slightly soluble
solubility ([2]; organic solvent or mixture, thermodynamic from solid, 1,4-Dioxane, 25° C., visual observation, read-out: Approximate solubility): 104 mg/mL (≈ 313 mM)
solubility ([2]; organic solvent or mixture, thermodynamic from solid, Acetone, 25° C., visual observation, read-out: Approximate solubility): 15 mg/mL (≈ 45.1 mM)
solubility ([2]; organic solvent or mixture, thermodynamic from solid, Acetonitrile, 25° C., visual observation, read-out: Approximate solubility): < 5 mg/mL
solubility ([2]; organic solvent or mixture, thermodynamic from solid, Anisole, 25° C., visual observation, read-out: Approximate solubility): < 5 mg/mL
solubility ([2]; organic solvent or mixture, thermodynamic from solid, Dichloromethane, 25° C., visual observation, read-out: Approximate solubility): < 5 mg/mL
solubility ([2]; organic solvent or mixture, thermodynamic from solid, Ethanol, 25° C., visual observation, read-out: Approximate solubility): 12 mg/mL (≈ 36.1 mM)
solubility ([2]; organic solvent or mixture, thermodynamic from solid, Ethyl acetate, 25° C., visual observation, read-out: Approximate solubility): < 5 mg/mL
solubility ([2]; organic solvent or mixture, thermodynamic from solid, Heptane, 25° C., visual observation, read-out: Approximate solubility): < 5 mg/mL
solubility ([2]; organic solvent or mixture, thermodynamic from solid, IPAc, 25° C., visual observation, read-out: Approximate solubility): < 5 mg/mL
solubility ([2]; organic solvent or mixture, thermodynamic from solid, Isopropanol, 25° C., visual observation, read-out: Approximate solubility): 6 mg/mL (≈ 18.1 mM)
solubility ([2]; organic solvent or mixture, thermodynamic from solid, Methanol, 25° C., visual observation, read-out: Approximate solubility): 21 mg/mL (≈ 63.2 mM)
solubility ([2]; organic solvent or mixture, thermodynamic from solid, Methyl ethyl ketone, 25° C., visual observation, read-out: Approximate solubility): 12 mg/mL (≈ 36.1 mM)
solubility ([2]; organic solvent or mixture, thermodynamic from solid, Tetrahydrofuran, 25° C., visual observation, read-out: Approximate solubility): 104 mg/mL (≈ 313 mM)
solubility ([2]; organic solvent or mixture, thermodynamic from solid, t-Butyl methyl ether, 25° C., visual observation, read-out: Approximate solubility): < 5 mg/mL
solubility ([2]; polyethylene glycol 400, methanol, ethanol, acetone and methyl ethyl ketone): sparingly soluble
solubility ([2]; polyethylene glycol 400, organic solvent or mixture, read-out: solubility in polyethylene glycol 400): ~20 mg/mL (≈ 60.2 mM)
solubility ([2]; tetrahydrofurane and 1,4-dioxane): freely soluble
solubility at 5 h ([2]; thermodynamic from solid, Water, 25° C., HPLC, read-out: Approximate solubility): 0.005 mg/mL (≈ 0.015 mM)
solubility ([2]; water, ethyl acetate, acetonitrile, IPAc, t-Butyl methyl ether, heptane, dichloromethane or anisole): insoluble
solubility at 5 h ([2]; water, as stated in the dog study, read-out: water solubility limit): 0.05 mg/mL (≈ 0.15 mM)
